{
  "source": "patent US11583528B2",
  "about": "“FFA1 (GPR40) as a therapeutic target for neural angiogenesis diseases or disorders” (Children's Medical Center Corporation, priority 2016, dated 2023)",
  "key": {"[1]": {"system": "pancreatic β-cell", "conditions": "by reducing β-cell overload; cited from earlier work"}, "[2]": {"system": "retinas", "experiment": "Oxygen consumption rate of ex vivo retinas (Seahorse XFe96)", "format": "cell-based, mouse", "conditions": "WT retinal explants with palmitate, etomoxir 40 μM", "experimental": "(§1) All oxygen consumption rates were measured using a Seahorse XFe96 Flux Analyzer®. Whole retinas were isolated and 1 mm punch biopsies were loaded into the 96 well plate. Retinal punches were incubated in assay media (DMEM 5030 media supplemented with 12 mM glucose, 10 mM HEPES and 26 mM NaHCO3) to measure oxygen consumption rates (OCR) and extracellular acidification rates (ECAR). Photoreceptor (661W) cells, were incubated in their assay media (DMEM 5030, 12 mM glucose, 10 mM HEPES) one hour prior to measurements. Fatty acid oxidation rates were determined by treating tissues or cells with Etomoxir (40 μM; Sigma) 40 min prior to analysis and then providing BSA (control) or BSA/Palmitate conjugate (Seahorse). Glucose oxidation rates were measured after injection of 2-deoxyglucose (2-DG, 100 mM; Sigma) or media control during data acquisition. To determine the maximal fatty acid or glucose oxidative capacity, the nonmitochondrial respiration (rate after injection of 2 μM Rotenone and 2 μM Antimycin A) was subtracted from the oxygen consumption rate after injection of 0.5 μM carbonyl cyanide-ptrifluoromethoxyphenylhydrazone (FCCP)."}, "[3]": {"system": "photoreceptors (661W)", "experiment": "Oxygen consumption and extracellular acidification rates of photoreceptor (661W) cells (Seahorse XFe96)", "format": "cell-based", "experimental": "as §1"}, "[4]": {"system": "Glut1", "experiment": "Glut1 expression in photoreceptor (661W) cells", "format": "cell-based", "conditions": "661W photoreceptors", "experimental": "RNA samples from cell culture, whole retina or laser-captured neovessels and layers were treated with DNase I (Qiagen, Chatsworth, Calif.) to remove any contaminating genomic DNA. The DNase-treated RNA was then converted into cDNA using reverse transcriptase (Invitrogen). PCR primers for target genes and the control gene, cyclophilin A, were designed using Primer Bank and NCBI Primer Blast software. Quantitative analysis of gene expression was generated using an ABI Prism 7700 Sequence Detection System with the SYBR Green Master mix kit and gene expression was calculated relative to cyclophilin A using the ΔcT method.\nCone photoreceptor cells (al-Ubaidi, M. R., J Cell Biol 119, 1681-1687 (1992), and Tan, E., et al. Invest Ophthalmol Vis Sci 45, 764-768 (2004)) (661W; from Dr. Al-Ubaidi) were cultured as monolayers at 37° C., 5% CO2 in a humidified atmosphere in DMEM with FBS 10% supplemented with hydrocortisone (20 μg/500 mL, H-2270, Sigma), Progesterone (20 μg/500 mL, P-8783, Sigma), Putrescine (0.016 g/500 mL, P-7505, Sigma) and β-mercaptoethanol (20 μL/500 mL, M-6250, Sigma). […] Photoreceptors were then collected 8 hours post-treatment for Hif1α protein expression (see Western blot); while their medium was collected at 12 hours for Vegfa quantification by ELISA (as per manual, MMV00, R&D Systems). […]"}, "[5]": {"system": "Vldlr−/− mice", "experiment": "Quantification of RAP-like retinal vascular lesions in Vldlr−/− mice", "format": "in vivo, mouse", "conditions": "Vldlr−/− pups treated from P8 to P15, lesions quantified at P16, versus vehicle control", "text": "(§2) All studies adhered to the NIH guide for the Care and Use of laboratory animals, the Association for Research in Vision and Ophthalmology (ARVO) Statement for the Use of Animals in Ophthalmic and Vision Research and were approved by the Institutional Animal Care and Use Committee at Boston Children's Hospital. Vldlr knockout mice (Vldlr^−/−; Jackson Lab Stock: 002529) were crossed with wild type C57Bl/6 mice to obtain heterozygous breeders for littermate controlled experiments. Vldlr^−/− mice were also crossed with Ffar1 knockout mice (Ffar1^−/−)^1 to ultimately obtain Vldlr^−/−/Ffar1^−/+ heterozygous breeders and double knockout mice (Vldlr^−/−/Ffar1^−/−). Pups weighing less than 5 grams or more than 7 grams at postnatal day (P)16 were excluded (Stahl, A., et al. Am J Pathol 177, 2715-2723 (2010)). Littermate Vldlr^−/− pups were treated from P8 to P15 with WY164363 (50 mg/kg once daily, intraperitoneal; Sigma), GW9508 (14 μM, once daily intraperitoneal; Cayman), TAK-875 (15 mg/kg twice daily, gavage; Selleckchem), medium chain triglyceride oil (MCT, 20 μL once daily gavage; Nestle) or corresponding vehicle and sacrificed at P16 to quantify retinal vascular lesions. Mice pups of both genders were used.\nFor quantification of outer retina vascular lesions, reminiscent of retinal angiomatous proliferation (RAP) or macular telangiectasia (MacTel), mice were euthanized with a mixture of xylazine and ketamine and eyes were enucleated and fixed in 4% paraformaldehyde for 1 h at room temperature. […] For quantification of retinal lesions 20 images of each whole-mounted retina were obtained at 10× magnification on a Zeiss AxioObserver.Z1 microscope and merged to form one image using AxioVision 4.6.3.0 software. Vascular lesion counts were analyzed using the SWIFT_MACTEL method, an adaptation of the method used to measure neovascularization (SWIFT_NV) (Stahl, A., et al. Angiogenesis 12, 297-301 (2009) in the oxygen induced retinopathy model. […]"}, "[6]": {"system": "photoreceptors (661W)", "experiment": "Glucose uptake of photoreceptor (661W) cells", "format": "cell-based", "conditions": "661W photoreceptors", "experimental": "Whole retinas and photoreceptors (661W) were incubated in assay media (DMEM 5030, 12 mM glucose, 10 mM HEPES) for 6 and 48 hours respectively. Media was collected, spun briefly (13 g) to remove cellular debris, and glucose and lactate levels measured using a Yellow Springs Instrument (YSI) 2950 were compared to control media that was not exposed to tissue or cells. To determine the conversion of glucose to lactate (the glycolytic rate), lactate production was divided by glucose uptake."}, "[7]": {"system": "WT and Vldlr−/− mice", "experiment": "Retinal glucose uptake (3H-2-deoxyglucose tracer) in treated pups", "format": "in vivo, mouse", "conditions": "WT and Vldlr−/− retinas; GW9508 14 μM daily i.p. for 5 days (P7-P12)", "experimental": "Positron emission tomography (PET) imaging studies were performed on WT, Vldlr^−/−/Ffar1^−/and Ffar1^−/− mice (P16; Focus 120 high-resolution, Siemens), followed by micro CAT imaging (MicroCAT II scanner, Siemens). Fluorine-18 fluorodeoxyglucose FDG) was administered by intraperitoneal injection (i.p.) to obtain nontoxic radioactivity levels (3.7 and 37 MBq; or 0.1 to 1.0 mCi). Actual administered activity was determined using a dose calibrator to measure activity in the syringe before and after the injection. Images were acquired 60 minutes after injection to ensure radiotracer uptake. Mice were fasted for 6 hours prior to imaging, kept in darkness and anesthetized by inhalation of isoflurane (2-4%) through a nose cone for the duration of the procedure. Animals were imaged in a head first, prone position, and placed on a heating pad to maintain appropriate body temperature. Upon completion of imaging, mice were euthanized and retinas were dissected for precise ^18F-FDG retinal activity, quantification by gamma counter, and corrected for decay. […] Retinas were collected and homogenized in a scintillation cocktail (Ecolite+, MP biomedicals) and betacounts measured using the LS6500 Multipurpose Scintillation Counter (Beckman)."}, "[8]": {"system": "Hif1α", "experiment": "Retinal Hif1α stabilization after in vivo treatment (Western blot)", "parameters": "species or system mouse", "experimental": "(§3) Retinal samples were obtained as described above. Retinal lysate (20 μg) from three different animals or endothelial cells lysate (10 μg) were loaded on an SDS-PAGE gel and electroblotted onto a PVDF membrane. After blocking, the membranes were incubated with antibodies against β-Actin (Sigma, A1978), Hif1α (Novus, NB100-134), and Glut1 (Novus, NB300-666 and Abcam, Ab652) overnight (1:1000 each). After washing, membranes were incubated with 1:10,000 horseradish peroxidase-conjugated anti-rabbit or anti-mouse secondary antibodies (Amersham, NA931V and NA934V) for one hour at room temperature. Densitometry was analyzed using ImageJ. Retinal Vegfa concentration was measured by ELISA (as per manual, MMV00, R&D Systems) and normalized by doing a Bradford to measure the total cell protein content of each samples."}, "[9]": {"system": "Glut1", "experiment": "Retinal Glut1 expression after in vivo treatment (qRT-PCR / Western blot)", "parameters": "species or system mouse", "conditions": "versus control", "text": "as §2, with “Pups weighing less than 5 grams or more than 7 grams at postnatal day (P)16 were excluded (Stahl, A., et al. Am J Pathol 177, 2715-2723 (2010)).” left out, “Mice pups of both genders were used.” left out\nRetinal samples were obtained as described above. […] Densitometry was analyzed using ImageJ. Retinal Vegfa concentration was measured by ELISA (as per manual, MMV00, R&D Systems) and normalized by doing a Bradford to measure the total cell protein content of each samples."}, "[10]": {"system": "Hif1α", "experiment": "Hif1α protein in photoreceptor (661W) cells (Western blot)", "format": "cell-based", "conditions": "661W photoreceptors, 8 hours post-treatment", "experimental": "as §3\nCone photoreceptor cells (al-Ubaidi, M. R., J Cell Biol 119, 1681-1687 (1992), and Tan, E., et al. Invest Ophthalmol Vis Sci 45, 764-768 (2004)) (661W; from Dr. Al-Ubaidi) were cultured as monolayers at 37° C., 5% CO2 in a humidified atmosphere in DMEM with FBS 10% supplemented with hydrocortisone (20 μg/500 mL, H-2270, Sigma), Progesterone (20 μg/500 mL, P-8783, Sigma), Putrescine (0.016 g/500 mL, P-7505, Sigma) and β-mercaptoethanol (20 μL/500 mL, M-6250, Sigma). Equal number of 661W cells (0.3×106) were plated in 6-well dishes and cultured to 80% confluence. […]"}},
  "note": "“Also recorded” adds a separate entry of the source.",
  "data": [
    {"smiles": "CCCCc1ccc(NS(=O)(=O)c2ccc(F)cc2)cc1", "note": "[DC260126, N-(4-Butylphenyl)-4-fluoro-benzenesulfonamide]", "values": [
      {"measurement": "pancreatic β-cell dysfunction", "setting": "[1]", "result": "protect"}
    ]},
    {"smiles": "CCOC(=O)[C@@]1(CCCCCCOc2ccc(Cl)cc2)CO1", "note": "[Etomoxir]", "values": [
      {"measurement": "mitochondrial respiration (OCR) with FA oxidation inhibitor", "setting": "[2]", "result": "abrogated"},
      {"measurement": "effect on the increase in respiration (OCR)", "setting": "[3]; 661W photoreceptors with palmitate, etomoxir 40 μM", "result": "abrogated"}
    ]},
    {"smiles": "O=C(O)CCc1ccc(NCc2cccc(Oc3ccccc3)c2)cc1", "note": "[GW9508]", "values": [
      {"measurement": "Glut1 expression", "setting": "[4]", "result": "suppression"},
      {"measurement": "number of RAP-like pathologic vascular lesions", "setting": "[5]", "result": "more than doubled"},
      {"measurement": "glucose uptake", "setting": "[6]", "result": "decreased"},
      {"measurement": "retinal glucose uptake (3H-2-DG tracer)", "setting": "[7]", "result": "suppressed; also recorded: reduction"},
      {"measurement": "Hif1α stabilization in retina", "setting": "[8]; Vldlr−/− retinas", "result": "stabilized"},
      {"measurement": "Hif1α stabilization in retina", "setting": "[8]; WT retinas", "result": "stabilized"},
      {"measurement": "Glut1 expression in retina", "setting": "[9]; WT and Vldlr−/− retinas", "result": "reduces; also recorded: suppressed"},
      {"measurement": "Hif1α stabilization", "setting": "[10]", "result": "stabilized; also recorded: stabilization"}
    ]},
    {"smiles": "CCCCCCCN(CCc1ccc(SC(C)(C)C(=O)O)cc1)C(=O)Nc1ccc(F)cc1F", "note": "[GW9578]", "values": [
      {"measurement": "extracellular acidification rate (ECAR), reflecting lactate production from glycolysis", "setting": "[3]; 661W photoreceptors, GW9578 100 nM, 48 hours", "result": "without significantly affecting; also recorded: not detectably affected"},
      {"measurement": "mitochondrial respiration by FA β-oxidation (OCR)", "setting": "[3]; 661W photoreceptors, palmitate, GW9578 100 nM, 48 hours", "result": "induced; also recorded: further increased"}
    ]},
    {"smiles": "COc1cccc(-c2cc(=O)c3ccccc3o2)c1N", "note": "[PD98059]", "values": [
      {"measurement": "effect on FFA1-mediated Glut1 suppression by GW9508", "setting": "[4]; PD98059, 20 μM, SP600125, Ffar1 siRNA", "result": "prevented"}
    ]},
    {"smiles": "Cc1cc(OCCCS(C)(=O)=O)cc(C)c1-c1cccc(COc2ccc3c(c2)OC[C@H]3CC(=O)O)c1", "note": "[TAK-875]", "values": [
      {"measurement": "number of RAP-like pathologic vascular lesions", "setting": "[5]", "result": "significantly increased and more"},
      {"measurement": "Glut1 expression in retina", "setting": "[9]; Vldlr−/− retinas only", "result": "increased Glut1 suppression"}
    ]},
    {"smiles": "Cc1cccc(Nc2cc(Cl)nc(SCC(=O)O)n2)c1C", "note": "[WY16463]", "values": [
      {"measurement": "number of RAP-like pathologic vascular lesions", "setting": "[5]", "result": "reduced"}
    ]}
  ]
}
